Assay in all cases: Disruption of BRAF RBD interaction with Ras (FRET / MOA assay, with Cyclophilin A)
What all share (assay type): biochemical

The target of assay [1] is KRAS G12D (Homo sapiens, UniProt P01116+P62937, G12D). The settings on record: read-out: KRAS G12D FRET data, IC50. The source says: (§1) This protocol may also be executed substituting other Ras proteins or nucleotides.
(§2) The purpose of this biochemical assay was to measure the ability of test compounds to facilitate ternary complex formation between a nucleotide-loaded K-Ras isoform and Cyclophilin A; the resulting ternary complex disrupts binding to a BRAF^RBD construct, inhibiting K-Ras signaling through a RAF effector. Data is reported as IC50 values.
(§3) Compound was present in plate wells as a 10-point 3-fold dilution series starting at a final concentration of 30 μM. After incubation at 25° C. for 3 hours, a mixture of Anti-His Eu-W1024 and anti-GST allophycocyanin was then added to assay sample wells at final concentrations of 10 nM and 50 nM, respectively, and the reaction incubated for an additional 1.5 hours. […] Compounds that facilitate disruption of a K-Ras:RAF complex were identified as those eliciting a decrease in the TR-FRET ratio relative to DMSO control wells.
(§4) The purpose of this biochemical assay was to measure the ability of test compounds to facilitate ternary complex formation between a nucleotide-loaded K-Ras isoform and Cyclophilin A; the resulting ternary complex disrupts binding to a BRAF^RBDD construct, inhibiting K-Ras signaling through a RAF effector. Data is reported as IC50 values.

Assay [2] has as its target KRAS G12C (Homo sapiens, UniProt P01116+P62937, G12C). The settings on record: KRAS G12C; read-out: KRAS G12C FRET data IC50.
Text: as §1, §2, §3, §4

Assay [3] deals with KRAS G12S (Homo sapiens, UniProt P01116+P62937, G12S). As to conditions: read-out: KRAS G12S FRET data, IC50.
Chain of KRAS G12S (P01116 1-169 isoform P01116-2 G12S limits assumed): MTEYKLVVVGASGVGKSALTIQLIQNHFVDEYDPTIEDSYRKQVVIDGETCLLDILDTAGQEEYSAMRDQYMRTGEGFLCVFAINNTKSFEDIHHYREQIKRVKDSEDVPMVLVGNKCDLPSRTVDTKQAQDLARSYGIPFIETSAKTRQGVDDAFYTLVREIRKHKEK
Chain of KRAS G12S (P62937 whole entry): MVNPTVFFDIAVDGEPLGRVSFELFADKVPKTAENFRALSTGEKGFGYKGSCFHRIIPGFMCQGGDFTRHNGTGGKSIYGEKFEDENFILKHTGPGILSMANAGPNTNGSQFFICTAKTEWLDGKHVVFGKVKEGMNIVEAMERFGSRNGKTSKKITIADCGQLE
Text: as §1, §2, §3, §4

Assay [4] has as its target KRAS G12V (Homo sapiens, UniProt P01116+P62937, G12V). As to conditions: KRAS G12V; read-out: KRAS G12V FRET data IC50.
Text: as §1, §2, §3, §4

Assay [5] concerns the target KRAS G13C (Homo sapiens, UniProt P01116+P62937, G13C). As to conditions: KRAS G13C; read-out: KRAS G13C FRET data IC50.
Text: as §1, §2, §3, §4

Assay [6] concerns the target KRAS WT (Homo sapiens, UniProt P01116+P62937). As to conditions: KRAS WT; read-out: KRAS WT FRET data IC50.
Text: as §1, §2, §3, §4

SMILES strings stand for the structures. pIC50: −log10 of the molar value. “And” between values parts separate entries of the source, which are not always exact repeats. Equal values may be shown once.

Here are results for 10 molecules from patent US20230233569A1 (Revolution Medicines, Inc., priority 2020, published 2023).

Chain of KRAS G12V (P01116 1-169 isoform P01116-2 G12V limits assumed): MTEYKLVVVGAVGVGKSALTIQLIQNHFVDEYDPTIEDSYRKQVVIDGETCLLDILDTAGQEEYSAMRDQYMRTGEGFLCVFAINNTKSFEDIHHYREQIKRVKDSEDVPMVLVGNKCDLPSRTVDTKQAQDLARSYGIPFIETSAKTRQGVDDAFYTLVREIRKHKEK
Chain of KRAS G12V (P62937 whole entry): as the sequence (P62937 whole entry) above
Chain of KRAS WT (P01116 1-169 isoform P01116-2 limits assumed): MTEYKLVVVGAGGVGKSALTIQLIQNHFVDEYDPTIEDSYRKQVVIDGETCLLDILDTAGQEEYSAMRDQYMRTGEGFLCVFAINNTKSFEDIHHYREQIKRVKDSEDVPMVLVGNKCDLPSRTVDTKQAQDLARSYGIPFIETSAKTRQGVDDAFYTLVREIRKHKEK
Chain of KRAS WT (P62937 whole entry): as the sequence (P62937 whole entry) above
Chain of KRAS G12D (P01116 1-169 isoform P01116-2 G12D limits assumed): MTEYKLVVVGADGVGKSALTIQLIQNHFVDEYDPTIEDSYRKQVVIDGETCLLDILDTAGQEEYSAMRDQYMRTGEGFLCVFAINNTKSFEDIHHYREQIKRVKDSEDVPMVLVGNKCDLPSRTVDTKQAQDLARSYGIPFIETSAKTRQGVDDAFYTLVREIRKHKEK
Chain of KRAS G12D (P62937 whole entry, canonical isoform): as the sequence (P62937 whole entry) above
Chain of KRAS G12C (P01116 1-169 isoform P01116-2 G12C): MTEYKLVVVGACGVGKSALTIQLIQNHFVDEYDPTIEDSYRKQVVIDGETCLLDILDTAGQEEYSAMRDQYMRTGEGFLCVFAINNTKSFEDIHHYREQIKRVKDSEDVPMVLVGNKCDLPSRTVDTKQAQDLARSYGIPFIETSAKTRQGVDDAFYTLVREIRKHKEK
Chain of KRAS G12C (P62937 whole entry): as the sequence (P62937 whole entry) above
Chain of KRAS G13C (P01116 1-169 isoform P01116-2 G13C): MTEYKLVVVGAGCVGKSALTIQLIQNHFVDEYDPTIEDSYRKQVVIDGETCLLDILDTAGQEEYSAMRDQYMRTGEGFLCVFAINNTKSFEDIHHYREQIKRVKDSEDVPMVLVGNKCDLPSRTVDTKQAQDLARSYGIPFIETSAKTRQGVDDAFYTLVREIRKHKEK
Chain of KRAS G13C (P62937 whole entry): as the sequence (P62937 whole entry) above

Consider `C=C(C)C(=O)N1CC(N(C)C(=O)N(C)[C@H](C(=O)N[C@H]2Cc3nc(cs3)-c3ccc4c(c3)c(c(-c3cccnc3[C@H](C)OC)n4CC)CC(C)(C)COC(=O)[C@@H]3CCCN(N3)C2=O)C(C)C)C1` (atropisomer, axis not shown) [Example A360], for which the pIC50 (usually −log10 of the IC50, conventionally taken in molar units) in assay [1] is 5.00 to 6.00.
Turning to `C=CC(=O)N1CC[C@H](C(=O)N(C)[C@H](C(=O)N[C@H]2Cc3cc(O)cc(c3)-c3ccc4c(c3)c(c(-c3ccncc3CCOC)n4CC)CC(C)(C)COC(=O)[C@@H]3CCCN(N3)C2=O)C(C)C)C1` (single isomer, unassigned) [Example A048], the pIC50 in assay [2] was 7.00 to 8.00 and 5.00 to 6.00; in assay [1], 5.00 to 6.00 and < 5.00; in assay [3] it was 6.00 to 7.00 and < 5.00; in assay [4], 6.00 to 7.00 and < 5.00; in assay [5], 6.00 to 7.00 and < 5.00; in assay [6] it was 5.00 to 6.00 and < 5.00.
As for `C=CC(=O)N1CC[C@H](C(=O)N(C)[C@H](C(=O)N[C@H]2Cc3cc(O)cc(c3)-c3ccc4c(c3)c(c(-c3ccc(CN(C)C)cc3)n4CC)CC(C)(C)COC(=O)[C@@H]3CCCN(N3)C2=O)C(C)C)C1` [Example A003], the pIC50 in assay [2] was 6.00 to 7.00; in assay [1], < 5.00; in assay [3], 5.00 to 6.00; in assay [4], 5.00 to 6.00; in assay [5] it was 5.00 to 6.00; in assay [6], < 5.00.
As for `C=CC(=O)N1CC[C@H](C(=O)N(C)[C@H](C(=O)N[C@H]2Cc3cc(O)cc(c3)-c3ccc4c(c3)c(c(-c3ccccc3CN(C)C)n4CC)CC(C)(C)COC(=O)[C@@H]3CCCN(N3)C2=O)C(C)C)C1` [Example A005], the pIC50 was 7.00 to 8.00 in assay [2]; 5.00 to 6.00 in assay [1]; 6.00 to 7.00 in assay [3]; 6.00 to 7.00 in assay [4]; 6.00 to 7.00 in assay [5]; 6.00 to 7.00 in assay [6].
With `C=CC(=O)N1CC[C@H](C(=O)N(C)[C@H](C(=O)N[C@H]2Cc3cc(OC(=O)CN)cc(c3)-c3ccc4c(c3)c(c(-c3ccccc3CCOC)n4CC)CC(C)(C)COC(=O)[C@@H]3CCCN(N3)C2=O)C(C)C)C1` [Example A008], the pIC50 in assay [2] is 6.00 to 7.00; in assay [1], < 5.00; in assay [3], 5.00 to 6.00; in assay [4], 5.00 to 6.00; in assay [5] it was 5.00 to 6.00; in assay [6], 5.00 to 6.00.
On to `C=CC(=O)N1CC[C@H](C(=O)N(C)[C@H](C(=O)N[C@H]2Cc3cc(cc(O)c3F)-c3ccc4c(c3)c(c(-c3ccccc3CCOC)n4CC)CC(C)(C)COC(=O)[C@@H]3CCCN(N3)C2=O)C(C)C)C1` [Example A009], for which the pIC50 is 5.00 to 6.00 in assay [2]; < 5.00 in assay [1]; < 5.00 in assay [3]; < 5.00 in assay [4]; < 5.00 in assay [5]; < 5.00 in assay [6].
Take `C=CC(=O)N1CC[C@H](C(=O)N(C)[C@H](C(=O)N[C@H]2Cc3cc(O)cc(c3)-c3ccc4c(c3)c(c(-c3ccc(CN5CCCC5)cc3)n4CC)CC(C)(C)COC(=O)[C@@H]3CCCN(N3)C2=O)C(C)C)C1` [Example A010]: the pIC50 was 6.00 to 7.00 in assay [2]; < 5.00 in assay [1]; 5.00 to 6.00 in assay [3]; 5.00 to 6.00 in assay [4]; 5.00 to 6.00 in assay [5]; 5.00 to 6.00 in assay [6].
In the case of `C=CC(=O)N1CCCN(C(=O)N(C)[C@H](C(=O)N[C@H]2Cc3cc(O)cc(c3)-c3ccc4c(c3)c(c(-c3ccccc3CCOC)n4CC)CC(C)(C)COC(=O)[C@@H]3CCCN(N3)C2=O)C(C)C)CC1` [Example A013], the negative logarithm of the IC50 (pIC50) in assay [2] is 6.00 to 7.00; in assay [1] it was < 5.00; in assay [3], 5.00 to 6.00; in assay [4], 5.00 to 6.00; in assay [5], 6.00 to 7.00; in assay [6], 5.00 to 6.00.
For the molecule `C=CC(=O)N1CCC(C(=O)N(C)[C@H](C(=O)N[C@H]2Cc3cc(O)cc(c3)-c3ccc4c(c3)c(c(-c3ccccc3CCOC)n4CC)CC(C)(C)COC(=O)[C@@H]3CCCN(N3)C2=O)C(C)C)CC1` [Example A014], the pIC50 in assay [2] is 6.00 to 7.00; in assay [1] it was < 5.00; in assay [3] it was 5.00 to 6.00; in assay [4], < 5.00; in assay [5], 5.00 to 6.00; in assay [6] it was 5.00 to 6.00.
Regarding `C=CC(=O)N1CCN(C(=O)N(C)[C@H](C(=O)N[C@H]2Cc3cc(O)cc(c3)-c3ccc4c(c3)c(c(-c3ccccc3CCOC)n4CC)CC(C)(C)COC(=O)[C@@H]3CCCN(N3)C2=O)C(C)C)CC1` [Example A018], the pIC50 in assay [2] was 6.00 to 7.00; in assay [1] it was < 5.00; in assay [3], 5.00 to 6.00; in assay [4], 5.00 to 6.00; in assay [5], 6.00 to 7.00; in assay [6], 5.00 to 6.00.
